Columns and labels:
Assay type in all cases: in vivo, human
[1] = tested on: adults with biopsy-confirmed NASH (NAS≥4, F1-F3) and hepatic fat fraction ≥10%; assay: 36-week Phase 2 serial MRI-PDFF and liver biopsy study; MRI-PDFF and liver volume (LV) assessment
Protocol: Hepatomegaly may cause symptoms (e.g., pain) in NASH patients, and is thought to be driven primarily by high liver fat content. […] The purpose of this study was to assess the relationship between liver triglycerides as measured by MRI-PDFF and liver volume (LV) in placebo and resmetirom-treated patients.
(§1) MRI-PDFF and liver volume (LV) were assessed in, (n=117), and a NASH-cirrhotic active resmetirom treatment arm of MAESTRO-NAFLD-1 (n=73), in patients who had at least baseline and one additional serial PDFF. LV was assessed using a validated artificial intelligence model for segmenting the liver on standard MR images.
LV at baseline was elevated in non-cirrhotic and cirrhotic NASH patients relative to literature values for healthy controls and was greater than predicted even after accounting for sex and body weight. PDFF correlated with LV at baseline in non-cirrhotic (r2=0.19, p<0.001) and more weakly in cirrhotic NASH (r2=0.079, p=0.01). Reduction in LV (CFB) correlated with reduction in PDFF in placebo (r2=0.25, p=0.001) and resmetirom (r2-0.38, p<0.0001) treated patients at 12 (and 36 (not shown)) weeks (see, e.g., FIG. 1).

[2] = tested on: well-compensated NASH cirrhotic patients; assay: MAESTRO-NAFLD-1 open label resmetirom arm in well-compensated NASH cirrhotic patients
Protocol: as §1
MAESTRO-NAFLD-1 is a 52-week >1200 patient Phase 3 randomized double blind placebo controlled NASH clinical trial to study safety and biomarker effects of resmetirom, a selective thyroid hormone receptor beta agonist, in NASH patients with F1-F4 fibrosis identified using non-invasive biomarkers and imaging (NCT04197479). A goal of this “real life” NASH study is to identify non-invasive markers that correlate with individual patient response to resmetirom treatment. The study includes an open label active resmetirom treatment arm in well-compensated NASH cirrhotic patients.
Eligibility required at least 3 metabolic risk factors (metabolic syndrome), and NASH cirrhosis diagnosed on liver biopsy or according to accepted criteria. The primary and key secondary end points of the cirrhotic arm include safety, relative percent reduction of MRI-PDFF (week 16), LDL cholesterol (LDL-C) (week 24), Apolipoprotein B and triglycerides, and markers of fibrosis. Patients received 80-100 mg daily dose of resmetirom for 52 weeks.
105 well-compensated NASH cirrhotic patients were enrolled in the open label arm, 2/3 confirmed by liver biopsy. Demographics include mean age 62.7 (9.0 (SD)), female 64%, BMI 35.4 (7.4), diabetes 70%, hypertension 77%, dyslipidemia >70%, mean ASCVD score 16.1%, hypothyroid 32.4%, 51% on statins. MRE kPa, 5.7 (2.1); fibroscan kPa, 24.6 (14.9), CAP, 318 (59) and mean MRI-PDFF, 8.1% (5). Stage of cirrhosis was inversely correlated with baseline PDFF. At week 52 resmetirom lowered fibroscan CAP (−42 units (p<0.0001) and kPa (−7.6 kPa, p=0.02).

[3] = tested on: noninvasively identified NASH patients; assay: MAESTRO-NAFLD-1 52 week Phase 3, 100 mg open label (OL) non-cirrhotic NASH arm
Protocol: MAESTRO-NASH NCT03900429 and MAESTRO-NAFLD-1 NCT04197479 are 52 week Phase 3 registrational double blind placebo controlled clinical trials to study the effect of resmetirom in more than 2,000 NASH patients. A goal of MAESTRO-NAFLD-1, a 1,200 patient “real life” NASH study is to identify non-invasive markers that correlate with patient response to resmetirom treatment. The 169 patient, 100 mg open label (OL) arm completed the 52 week study in July 2021.
Eligibility required at least 3 metabolic risk factors (Metabolic syndrome), fibroscan kilopascals (kPa) consistent with ≥F1 fibrosis stage, and MRI-PDFF≥8%. The primary and key secondary endpoints of MAESTRO-NAFLD-1 including safety, relative percent reduction of MRI-PDFF (week 16), LDL cholesterol (LDL-C) (week 24), apolipoprotein B and triglycerides, fibroscan and 52 week endpoints were analyzed in the OL arm.

[4] = cirrhotic NASH patients with PDFF≤5% at baseline, week 16

## CC(C)c1cc(Oc2c(Cl)cc(-n3nc(C#N)c(=O)[nH]c3=O)cc2Cl)n[nH]c1=O [resmetirom, 2-(3,5-dichloro-4-((5-isopropyl-6-oxo-1,6-dihydropyridazin-3-yl)oxy)phenyl)-3,5-dioxo-2,3,4,5-tetrahydro-1,2,4-triazine-6-carbonitrile]
[1]; 12 weeks, p<0.0001 vs placebo
  LV reduction: −18.6%
[1]; 36-week Phase 2, compared with placebo, associated with NASH resolution on liver biopsy
  liver fat reduction (MRI-PDFF): statistically significant liver fat reduction
[1]; 36 weeks, p<0.0001 vs placebo
  LV reduction: −20.5%
[1]; Week 12, p<0.0001 vs placebo
  percentage of patients with ≥15% reduction in liver volume: 69.2%
[1]; all such resmetirom treated patients
  week 12 imaging response in patients who had NASH resolution and/or fibrosis reduction on biopsy at week 36: PDFF reduction ≥30% and/or LV reduction of ≥15%
[2]; 80-100 mg daily up to 52 weeks
  safety and tolerability: safe and well-tolerated
[2]; 80-100 mg daily, week 52, p<0.0001
  fibroscan CAP change: −42 units
[2]; 80-100 mg daily, week 52, p=0.02
  fibroscan kPa change: −7.6 kPa
[2]; NASH cirrhotic arm
  BP reduction: 4-5 mm
[2]; [4]
  LV mean % CFB: −16.3%
  PDFF mean % CFB: −2.5%
[2]; independent of cirrhosis stage
  ApoB reduction: 20%
  LDL-C reduction: 20%
  Lp (a) reduction: 30%
  triglycerides reduction: 21%
[2]; p=0.04
  GGT change: −27%
[2]; patients with baseline PDFF>5%, p<0.0057
  PDFF lowered by: 37%
[2]; week 52
  MRE lowered by: 0.68 kPa
  patients with MRE reduction of ≥15%: 34%
[2]; week 52, independent of baseline cirrhosis severity
  patients with ≥15% reduction in LV: 73%
[3]; 100 mg OL arm
  ELF (inflammatory and fibrosis biomarker): Significant reductions
  LV reduction relative to that predicted by % reduction in MRI-PDFF: 2-3 fold
  M30 (inflammatory and fibrosis biomarker): Significant reductions
  adiponectin: increase
  reverse T3 (inflammatory and fibrosis biomarker): Significant reductions
[3]; 100 mg OL arm, p<0.0001
  LDL-C reduction: −22%
  apolipoprotein-B reduction: −24%
  triglycerides reduction: −24%
[3]; 100 mg OL arm, p=0.02
  blood pressure (systolic, diastolic) reduction: ~2 mmHg
[3]; 100 mg OL arm, linked to resmetirom exposure (SHBG)
  patients with weight loss ≥5%: ~25%
[3]; 100 mg per day up to 52 weeks
  safety: No safety flags were identified
[3]; 100 mg, week 52, p<0.0001
  liver volume (LV) reduction: −23%
[3]; 52 weeks
  bone mineral density (DEXA): unchanged
[3]; week 52, p<0.0001
  fibroscan CAP change relative to baseline: −39 (4.6)
  fibroscan VCTE change relative to baseline: −1.87
  fibroscan VCTE percent change relative to baseline: −20%
[3]; week 52, p=0.03
  MRE change relative to baseline: −0.34
